We go through 19 molecules from paper PMC8151276, “An Integrated Approach toward NanoBRET Tracers for Analysis of GPCR Ligand Engagement” (Molecules, 2021).

One assay deals with T1, HTR7 (Homo sapiens, UniProt P34969).
T1 construct: purchased Promega (in-house HiBiT-GPCR construct library, NanoBRET)
The assay is described as follows: NanoBRET screen HiBiT-HTR7 in HEK293. It is filed as binding. Here is the method: (§1) Each tracer candidate was screened across the entire library of HiBiT-GPCR constructs using NanoBRET as the detection modality. As depicted in Figure 4A, the specificity of interactions was evaluated through decrease in BRET due to competitive displacement of a bound tracer by excess parental compound. Each tracer was analyzed for binding to each HiBiT-GPCR fusion in the absence and in the presence of competing parental compound. Briefly, HEK293 cells were transfected with HiBiT-GPCR constructs diluted into promoterless DNA to reduce expression and maximize translocation to the cell surface. Each tracer candidate was then screened at concentrations of 1 μM and 0.1 μM across cells expressing these fusions. Cells were treated for 1.5 h with tracer either alone or in the presence of 20 μM competing parental compound (i.e., control). BRET was measured upon addition of purified LgBiT and subsequent complementation with HiBiT genetically fused to a GPCR. The specificity of interactions was assessed through a decrease in BRET signal due to competitive displacement of the bound tracer. To further gauge the robustness of these interactions, the fold response over the control (i.e., BRETtracer/BRETcontrol) was calculated. We chose a 1.5-fold response, which translates to ≥7-fold signal over noise as the minimal threshold required to score an interaction as positive.
(§2) HiBiT-GPCR DNA constructs were diluted in 10 mM Tris pH 8 to a final concentration of 0.01 μg/μL, arrayed in 96-well plates and stored at −20 °C. For transfection, HEK293 cells were suspended in Opti-MEM (without phenol red) supplemented with 2% fetal bovine serum (Seradigm) and 100 units/mL penicillin–streptomycin (Gibco) at a final concentration of 220,000 cells/mL and dispensed into white 96-well plates at 90 μL/well. Subsequent transfections and screens were carried using an Agilent Bravo Automated Liquid Handling Platform. First, the 96-well HiBiT DNA arrays were diluted 25-fold in Opti-MEM (without serum or phenol red) to a final concentration of 0.0004 μg/μL and 20 μL of the diluted DNAs were transferred into new 96-well plates. Next, promoterless carrier DNA (1 μg/μL) was diluted 25-fold (0.04 μg/μL) and then dispensed into the diluted arrays at 20 μL/well. Following brief mixing, Viafect transfection reagent (Promega) diluted 16-fold into Opti-MEM was dispensed into the plates at 40 μL/well. After mixing by pipetting, plates were incubated for 10 min on the pipetting station deck. The DNA-transfection reagent complexes were then added to plates containing cells. To facilitate the screen, 10 μL of DNA-transfection reagent complexes were added in duplicates to the top 4 and bottom 4 rows, resulting in two identical 48-well arrays per plate. Plates with transfected cells were incubated for 18–20 h at 37 °C/5% CO2. A screen of each tracer across the entire library using two different concentrations requires duplicate plates of transfected cells. Depending on the number of tracers being screened, transfections can be scaled up using the same ratios. The next day, for each tracer, four 20× screening solutions in tracer dilution buffer (Promega) were prepared: two duplicates at final concentration of 20 μM and two duplicates at a final concentration of 2 μM. […] The four resulting solutions were diluted 4-fold in Opti-MEM without serum or phenol red to generate 5× solutions (5 µM and 0.5 µM tracer +/− 100 μM competing compound). To screen the library, a BioTek MultiFlo FX liquid dispenser was used to dispense 22.5 µL of tracer solution to the top 4 rows and 22.5 µL tracer + competing compound solution to the 4 bottom rows. Plates were briefly mixed on an orbital shaker and incubated for 1.5 h at room temperature. […] Plates were briefly mixed on an orbital shaker and incubated for 15 min to allow complementation.

Another assay concerns the target T2, NPY4R (Homo sapiens, UniProt P50391).
T2 construct: purchased Promega (in-house HiBiT-GPCR construct library, NanoBRET)
Put plainly: NanoBRET screen HiBiT-NPY4R in HEK293. It is filed as binding. Here is the method: as §1, §2

Where [1] appears, read: tracer at 1μM, listed as amitriptyline-b-2-NB590.

T2 sequence (P50391 whole entry): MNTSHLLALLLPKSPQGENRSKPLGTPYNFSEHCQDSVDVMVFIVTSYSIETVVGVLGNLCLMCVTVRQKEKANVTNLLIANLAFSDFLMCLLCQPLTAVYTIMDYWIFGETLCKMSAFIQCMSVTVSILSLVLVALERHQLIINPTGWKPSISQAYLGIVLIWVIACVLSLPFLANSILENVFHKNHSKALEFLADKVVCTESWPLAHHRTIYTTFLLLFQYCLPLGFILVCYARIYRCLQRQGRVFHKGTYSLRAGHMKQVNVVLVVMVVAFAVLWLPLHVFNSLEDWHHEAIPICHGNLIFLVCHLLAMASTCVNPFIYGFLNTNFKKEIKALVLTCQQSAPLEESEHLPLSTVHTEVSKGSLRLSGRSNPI
T1 sequence (P34969 whole entry): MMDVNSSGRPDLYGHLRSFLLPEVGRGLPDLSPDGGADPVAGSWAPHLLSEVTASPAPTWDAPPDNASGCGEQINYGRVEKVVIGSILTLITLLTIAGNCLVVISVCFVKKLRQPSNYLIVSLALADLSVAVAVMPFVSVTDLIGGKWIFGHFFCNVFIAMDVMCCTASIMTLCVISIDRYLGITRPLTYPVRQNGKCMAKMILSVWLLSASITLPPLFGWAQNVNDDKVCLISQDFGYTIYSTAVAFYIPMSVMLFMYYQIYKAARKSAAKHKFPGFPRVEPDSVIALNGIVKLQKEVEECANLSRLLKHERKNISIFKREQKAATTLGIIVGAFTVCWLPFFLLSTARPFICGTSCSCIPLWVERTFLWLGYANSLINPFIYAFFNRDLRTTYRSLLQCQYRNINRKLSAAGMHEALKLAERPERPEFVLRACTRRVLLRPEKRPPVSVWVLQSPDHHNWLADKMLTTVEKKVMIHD

`O=C(CCOCCOCCOCCOCCNC(=O)CCc1ccc2n1[B-](F)(F)[N+]1=C(c3ccc[nH]3)C=CC1=C2)NCCCN1CCN(C2=Nc3ccccc3Oc3ccc(Cl)cc32)CC1` [Loxapine-a-2-NB590]: the “NanoBRET Fold Response” value is on record as 1.07 at HTR7 (HTR7, tracer 0.1μM); 1.30 on HTR7 (HTR7, tracer 1μM); 0.99 on NPY4R (NPY4R, tracer 0.1μM); 1.10 on NPY4R (NPY4R, tracer 1μM).
The like results for `CCCn1c(=O)c2[nH]c(-c3ccc(OCC(=O)NCCNC(=O)CCOCCNC(=O)c4ccc(CNC(=O)CCc5ccc6n5[B-](F)(F)[N+]5=C(c7ccc[nH]7)C=CC5=C6)cc4)cc3)nc2n(CCC)c1=O` [XAC-3-NB590] were, in that order, 0.99, 0.96, 0.97 and 0.86.
For `CN(C)CCC=C1c2ccccc2CCc2ccc(C(=O)NCCNC(=O)CCOCCOCCOCCOCCNC(=O)CCc3ccc4n3[B-](F)(F)[N+]3=C(c5ccc[nH]5)C=CC3=C4)cc21` [Amitriptyline-a-2-NB590], the “NanoBRET Fold Response” value at HTR7 (tracer at 0.1μM) is 1.00; on HTR7 (tracer at 1μM), 1.15; at NPY4R (tracer at 0.1μM), 1.11; on NPY4R (tracer at 1μM), 0.96.
With `COc1ccccc1N1CCN(CCCCN2C(=O)c3ccc(CNC(=O)CCOCCOCCOCCOCCNC(=O)CCc4ccc5n4[B-](F)(F)[N+]4=C(c6ccc[nH]6)C=CC4=C5)cc3C2=O)CC1` [NAN-190-2-NB590], the “NanoBRET Fold Response” value on HTR7 (HTR7, tracer 1μM) amounted to 1.10; at NPY4R (NPY4R, tracer 0.1μM) it was 0.95; on NPY4R (NPY4R, tracer 1μM) it was 1.04.
Consider `O=C(CCc1ccc2n1[B-](F)(F)[N+]1=C(c3ccc[nH]3)C=CC1=C2)NCc1ccc(C(=O)NCCOCCOCCNCC(O)COc2cccc3ccccc23)cc1` (stereo not shown) [Propranolol-3-NB590], for which the “NanoBRET Fold Response” value at HTR7 (HTR7, 0.1μM) was determined as 1.03; at HTR7 (HTR7, 1μM), 1.02; at NPY4R (NPY4R, 0.1μM), 0.98; on NPY4R (NPY4R, 1μM), 0.99.
Take `COc1ccccc1N1CCN(CCCCN2C(=O)c3ccc(CNC(=O)CCOCCNC(=O)c4ccc(CNC(=O)CCc5ccc6n5[B-](F)(F)[N+]5=C(c7ccc[nH]7)C=CC5=C6)cc4)cc3C2=O)CC1` [NAN-190-3-NB590]: the “NanoBRET Fold Response” value amounted to 1.21 at HTR7 (HTR7, tracer 0.1μM); 1.05 on HTR7 (HTR7, tracer 1μM); 1.06 on NPY4R (NPY4R, tracer 0.1μM); 0.95 on NPY4R (NPY4R, tracer 1μM).
The like results for `O=C(CCc1ccc2n1[B-](F)(F)[N+]1=C(c3ccc[nH]3)C=CC1=C2)NCc1ccc(C(=O)NCCOCCC(=O)N[C@@H]2CC[C@@]3(O)[C@H]4Cc5ccc(O)c6c5[C@@]3(CCN4CC3CC3)[C@H]2O6)cc1` [Naltrexone-3-NB590] were, in that order, 0.97, 0.97, 1.04 and 0.91.
Take `CCOC(=O)c1cc(C#N)c(N2CCC(C(=O)NS(=O)(=O)Cc3ccccc3/C=C/C(=O)NCCNC(=O)CCc3ccc4n3[B-](F)(F)[N+]3=C(c5ccc[nH]5)C=CC3=C4)CC2)nc1C` [AZD1283-1-NB590]: the “NanoBRET Fold Response” value is 1.08 at HTR7 (HTR7, 0.1μM); 1.09 on HTR7 (HTR7, 1μM); 1.02 at NPY4R (NPY4R, 0.1μM); 1.03 at NPY4R (NPY4R, 1μM).
As for `COc1ccc2[nH]c(-c3ccc(CNC(=O)CCOCCOCCOCCOCCNC(=O)CCc4ccc5n4[B-](F)(F)[N+]4=C(c6ccc[nH]6)C=CC4=C5)cc3)c(CCNC(C)=O)c2n1` [AzomelatoninICO9-2-NB590], the “NanoBRET Fold Response” value on HTR7 (0.1μM tracer) came out at 0.96; at HTR7 (1μM tracer), 1.02; at NPY4R (0.1μM tracer) it was 1.11; at NPY4R (1μM tracer), 0.94.
As to `CC(C)N(CC[C@H](c1ccccc1)c1cc(CCNC(=O)CCOCCOCCOCCOCCNC(=O)CCc2ccc3n2[B-](F)(F)[N+]2=C(c4ccc[nH]4)C=CC2=C3)ccc1O)C(C)C` [Tolterodine-2-NB590], the “NanoBRET Fold Response” value was 1.06 on HTR7 (HTR7, tracer 0.1μM); 1.07 on HTR7 (HTR7, tracer 1μM); 0.86 on NPY4R (NPY4R, tracer 0.1μM); 1.09 at NPY4R (NPY4R, tracer 1μM).
For the molecule `N#CN=C(NCCCOc1cccc(CN2CCCCC2)c1)NCCNC(=O)CCOCCOCCOCCOCCNC(=O)CCc1ccc2n1[B-](F)(F)[N+]1=C(c3ccc[nH]3)C=CC1=C2` [Aminopotentidine-2-NB590], the “NanoBRET Fold Response” value is 1.00 on HTR7 (HTR7, tracer 0.1μM); 1.00 on HTR7 (HTR7, tracer 1μM); 1.01 at NPY4R (NPY4R, tracer 0.1μM); 0.98 at NPY4R (NPY4R, tracer 1μM).
For the molecule `COc1ccc2c(n1)c(CCNC(C)=O)cn2CCNC(=O)CCc1ccc2n1[B-](F)(F)[N+]1=C(c3ccc[nH]3)C=CC1=C2` [Azamelatonin-1-NB590], the “NanoBRET Fold Response” value on HTR7 (0.1μM tracer) is 0.99; at HTR7 (1μM tracer), 0.99; at NPY4R (0.1μM tracer), 1.11; on NPY4R (1μM tracer), 1.08.
Turning to `CN(CCC=C1c2ccccc2CCc2ccccc21)C(=O)CCOCCOCCOCCOCCNC(=O)CCc1ccc2n1[B-](F)(F)[N+]1=C(c3ccc[nH]3)C=CC1=C2` [Amitriptyline-e-2-NB590], at HTR7 (tracer at 1μM), the “NanoBRET Fold Response” value came out at 0.96.
With `N#CN/C(=N\CCNC(=O)c1ccc(N)cc1)NCCCOc1cccc(CN2CCCCC2)c1` [Aminopotentidine (unmodified)], the “NanoBRET Fold Response” value amounted to 1.10 at HTR7 (HTR7, other tracers/Aminopotentidine (unmodified), 0.1μM) and 1.18 at HTR7 (HTR7, other tracers/Aminopotentidine (unmodified), 1μM).
Turning to `CC(C)N(CC[C@H](c1ccccc1)c1cc(CCNC(=O)c2ccc(CNC(=O)CCc3ccc4n3[B-](F)(F)[N+]3=C(c5ccc[nH]5)C=CC3=C4)cc2)ccc1O)C(C)C` [Tolterodine-BZ-NB590], the “NanoBRET Fold Response” value was 1.06 at HTR7 (HTR7, tracer 0.1μM); 1.03 on HTR7 (HTR7, tracer 1μM); 0.88 at NPY4R (NPY4R, tracer 0.1μM); 0.98 on NPY4R (NPY4R, tracer 1μM).
Taken in the same sequence, the figures for `O=C(CCc1ccc2n1[B-](F)(F)[N+]1=C(c3ccc[nH]3)C=CC1=C2)NCCOCCOCCNC(=O)OCCOCCN1CCN(C2=Nc3ccccc3Sc3ccccc32)CC1` [Quetiapine-a-2-NB590] were 1.01, 1.15, 1.06 and 0.73.
In the case of `Cc1cc2c(s1)Nc1ccccc1N=C2N1CCN(CCCNC(=O)CCOCCOCCOCCOCCNC(=O)CCc2ccc3n2[B-](F)(F)[N+]2=C(c4ccc[nH]4)C=CC2=C3)CC1` [Olanzapine-a-2-NB590], the “NanoBRET Fold Response” value came to 0.99 on HTR7 (HTR7, tracer 0.1μM); 1.16 at HTR7 (HTR7, tracer 1μM); 1.01 on NPY4R (NPY4R, tracer 0.1μM); 0.91 on NPY4R (NPY4R, tracer 1μM).
In the case of `CN(C)CCC=C1c2ccccc2CCc2ccc(C(=O)NCCNC(=O)CCOCCOCCOCCOCCNC(=O)CCc3ccc4n3[B-](F)(F)[N+]3=C(c5ccc[nH]5)C=CC3=C4)cc21` [Amitriptyline-b-2-NB590], the “NanoBRET Fold Response” value was 0.94 on HTR7 (tracer at 0.1μM, listed as amitriptyline-b-2-NB590); 0.94 on HTR7 (setting [1]); 1.03 at NPY4R (setting [1]).
As for `CN1CCN(C2=Nc3cc(Cl)ccc3Nc3ccc(CNC(=O)CCOCCOCCOCCOCCNC(=O)CCc4ccc5n4[B-](F)(F)[N+]4=C(c6ccc[nH]6)C=CC4=C5)cc32)CC1` [Clozapine-b-2-NB590], the “NanoBRET Fold Response” value on NPY4R (NPY4R, 0.1μM tracer) came out at 1.02; at NPY4R (NPY4R, 1μM tracer), 1.08.
